According to patent EP0583566A2, “Process for the preparation of glycine-conjugated bile acids and relative pharmaceutical compositions useful for treating hepatic insufficiency” (ERREGIERRE INDUSTRIA CHIMICA Spa, priority 1992, dated 1994):
Read-outs that look alike come from different tables or passages of the source.

Assays:
[1] = critical micellar concentration (detergent capacity); format: physicochemical
[2] = in vivo
Source text: (§1) GUDCA is well absorbed by the intestine through a double mechanism, i.e. active and passive, transported to the liver by the portal system and uptaken. It passes rapidly through the liver without being metabolized and is then secreted in the bile with high transport rate and efficiency.

[3] = uptake by the liver; format: in vivo
Source text: as §1, with “efficiency. UDCA is absorbed only through a passive mechanism and is uptaken by liver at 50% (GUDCA at 80%).” for “efficiency.”

[4] = test system: hepatotoxic effects of TUDCA; assay: hepatoprotective activity against bile acid hepatotoxicity on co-administration; format: in vivo; details: 0.8 µmol/min/100g
Source text: Normal values of alkaline phosphatase (ALP) and biliary lactate dehydrogenase (LDH) as well as of bile flow and calcium secretion are thereby obtained.

[5] = physchem
[6] = pKa

Compound | critical micellar concentration [1] | Fa [2] | hepatic extraction ratio ([3]; in vivo) | prevention of hepatotoxic effects ([4]; administered with TUDCA at the same dose) | alkaline phosphatase (ALP) and biliary lactate dehydrogenase (LDH) ([4]; for GUDCA also bile flow and calcium secretion normal) | logP [5] | pKa [6] | pH values of the intestine contents at which absorbed [2] | hepatic extraction ratio ([3]; liver, read-out: uptaken by liver)
C[C@H](CCC(=O)NCC(=O)O)[C@H]1CC[C@H]2[C@@H]3[C@@H](O)C[C@@H]4C[C@H](O)CC[C@]4(C)[C@H]3CC[C@]12C [GUDCA, glycoursodeoxycholic acid] | 12 µM | 100% | 0.8 | can prevent the hepatotoxic effects | Normal values | 2 |  |  | 
C[C@H](CCC(=O)NCCS(=O)(=O)O)[C@H]1CC[C@H]2[C@@H]3[C@@H](O)C[C@@H]4C[C@H](O)CC[C@]4(C)[C@H]3CC[C@]12C [TUDCA, tauroursodeoxycholic acid] |  |  |  |  |  |  | ~1 |  | 
C[C@H](CCC(=O)O)[C@H]1CC[C@H]2[C@@H]3[C@@H](O)C[C@@H]4C[C@H](O)CC[C@]4(C)[C@H]3CC[C@]12C [UDCA, ursodeoxycholic acid] |  | 50% |  |  |  |  |  | 8.5 | 0.5
